In US20120083464A1, “NEUROPROTECTIVE PROPERTIES OF 5'-METHYLTHIOADENOSINE” (priority 2009, published 2012):
Entries after “also recorded” stand apart in the source; their conditions may differ.

Columns and labels:
caspase 3 activity [1] = assay: NMDA-mediated increase in caspase 3 activity in mixed neuronal-glial culture; type: cell-based, Sprague-Dawley rat; conditions: NMDA 300 μM, MTA 250 μM or MK-801 10 μM
Method: (§1) Primary cultures of brain cortical neurons and glia were essentially prepared as described previously (Bruno et al., 2001, Eur. J. Neurosci., 13:1469-1478). The fronto-lateral cortical lobes were dissected out of Sprague-Dawley embryonic day 17 foetuses and were mechanically dissociated in Hanks' balanced solution. The cortical lobes were triturated by aspirating 7-10 times using a Pasteur pipette with a flame-narrowed tip. […]
(§2) Cortical neurons or mixed cortical neurons and glia were plated on poly-L-lysine-coated 6-well culture plates and after 7 DIV, cells were treated with vehicle or NMDA (300 μM) for different periods of time. […] Extracts were then centrifuged at 5,000×g for 10 min at 4° C., and protein content was determined by using the BCA protein assay according to the manufacturer instructions. Cell extracts (40 μg of protein) were incubated in reaction buffer (25 mM Hepes, 10% sucrose, 0.1% CHAPS, 10 mM DTT) containing 50 μM fluorescence substrate Z-DEVD-AFC at 37° C. for 1 h. Cleavage of the AFC fluorophore was determined in a spectrofluorometer at excitation wavelength of 400 nm and fluorescence was detected at an emission wavelength of 505 nm. Caspase 3 activity was expressed as units of fluorescence/mg of protein/h (Posadas et al., 2009, Pharm. Res., In press).

[2] = tested on: cerebellar organotypic cultures; assay: LPS neuroinflammation model in cerebellar organotypic cultures: demyelination and axonal damage (immunofluorescence, Western blot); type: cell-based, C57/B16 wild type mice; conditions: 192 μM MTA pre-treatment for half hour, 15 μg/ml LPS, 24 hrs
Excerpt: Organotypic cultures model of neuroinflammation is based on previous observations in which systemic injections of lipopolysaccharide (LPS) in mice spinal cord induce inflammation, demyelinization and Wallerian degeneration. In mice cerebellar organotypic cultures, LPS induces microglia activation with consequent demyelination and axonal damage. In particular, LPS induces TNF-alpha, IL1-beta release, axonal swelling and end bulbs due to axonal transport block, and a decrease of axonal density. Organotypic cultures represent the best model to represent in vivo mechanisms since they maintain cell-cell interaction and organotypic structure of brain region studied. In this way, this in vitro neuroinflammation model reproduces the microglia activation, demyelinization and axonal damage phenomena observed in MS.
Cerebellar organotypic cultures which were pre-treated for half hour with 192 μM of MTA and 15 μg/ml of LPS have been used to generate neuroinflammation model.
2. Data analysis: Western blot, immunofluorescence and ELISA analysis were performed using conventional techniques.

[3] = tested on: pure rat cortical neuronal culture; assay: NMDA-mediated toxicity (LDH release) in pure neuronal culture; type: cell-based, Sprague-Dawley rat; conditions: NMDA 300 μM, MTA 100 to 500 μM
Method: Primary cultures of brain cortical neurons were essentially prepared as described previously (Bruno et al., 2001, Eur. J. Neurosci., 13:1469-1478). The fronto-lateral cortical lobes were dissected out of Sprague-Dawley embryonic day 17 foetuses and were mechanically dissociated in Hanks' balanced solution. The cortical lobes were triturated by aspirating 7-10 times using a Pasteur pipette with a flame-narrowed tip. After centrifugation at 800 g for 5 min, cells were resuspended in serum-free Neurobasal medium (GIBCO) supplemented with B27 (GIBCO) containing 2 mM L-glutamine, penicillin (20 units/ml) and streptomycin (5 μg/ml) and plated on poly-L-lysine-coated 24-well culture plates or on poly-L-lysine-coated 6-well culture plates. […]
For viability experiments, cortical neurons or mixed cortical neurons and glia, seeded onto 24-well plates at 15×10^4 cells/well and cultured for 7 DIV, were treated with vehicle (DMSO 1‰), NMDA (300 μM), NMDA (300 μM)+MTA (at different concentrations) or NMDA (300 μM)+MK-801 (10 μM) for 6 h and 24 h. […] Lactate dehydrogenase (LDH) activity was measured as an index of cellular death and mortality was expressed as percentage of LDH released to culture media. LDH was measured spectrophotometrically at 490 nm on a 96-well plate reader by using the Cytotox 96 Kit according to the manufacturer instructions (Promega). […]

caspase 3 activity [4] = assay: NMDA-mediated increase in caspase 3 activity in pure neuronal culture; type: cell-based, Sprague-Dawley rat; conditions: NMDA 300 μM, MTA 100 to 500 μM
Method: as §1, with “neurons” for “neurons and glia”
as §2

RN22 cells = assay: Copper sulphate stress in RN22 cells, MTT cell viability; type: cell-based, rat
Method: RN22 cells were maintained at 37° C. in DMEM medium supplemented with 10% of fetal bovine serum and penicillin/streptomycine. The assays against stress with copper sulphate were conducted using 24-well plates in DMEM medium without serum. After allowing cell adherence for three days, NGF (100 ng/ml) or MTA was added to different concentrations half an hour before the copper sulphate (150 μM). After twenty-four hours, cell viability was quantified by MTT assay and ROS production was quantified by fluorescence. Assays against stress with hydrogen peroxide were conducted in the same way as the foregoing, using 100 μM hydrogen peroxide as a stress-producing agent.
We determined the quantity of MTT (Sigma) that is reduced to insoluble formazan. After separating the medium, the water-insoluble formazan is solubilised in DMSO and the dissolved material is measured in a spectrophotometer at 570 nm.

Structure (SMILES): CSC[C@H]1O[C@@H](n2cnc3c(N)ncnc32)[C@H](O)[C@@H]1O [MTA, 5′-methylthioadenosine]
- protection against NMDA-induced caspase 3 activity (caspase 3 activity [1]): blockade of caspase 3 activation; also recorded: protection
- demyelination and axonal damage (MBP/NFL immunofluorescence, CNPase/APP Western blot) [2]: prevents; also recorded: absents
- effect on NMDA-mediated toxicity (LDH release) [3]: no neuroprotective effect; also recorded: Lack of effect
- effect on NMDA-mediated increase in caspase 3 activity (caspase 3 activity [4]): Lack of effect
- cell viability response (MTT) under copper sulphate stress at high MTA concentrations (RN22 cells; MTA in mM range): lowest response
- cell viability (MTT) under copper sulphate stress (RN22 cells; copper sulphate 150 μM, twenty-four hours, reaches NGF control levels at most MTA concentrations): significant neuroprotective effect
